Consider three molecules from patent EP3960174B1 (priority 2020, dated 2022).

For this test, the target named is T1, AChE (Homo sapiens, UniProt P22303).
T1 construct: purchased Sigma Aldrich, Taufkirchen, D
T1 sequence (P22303 32-614): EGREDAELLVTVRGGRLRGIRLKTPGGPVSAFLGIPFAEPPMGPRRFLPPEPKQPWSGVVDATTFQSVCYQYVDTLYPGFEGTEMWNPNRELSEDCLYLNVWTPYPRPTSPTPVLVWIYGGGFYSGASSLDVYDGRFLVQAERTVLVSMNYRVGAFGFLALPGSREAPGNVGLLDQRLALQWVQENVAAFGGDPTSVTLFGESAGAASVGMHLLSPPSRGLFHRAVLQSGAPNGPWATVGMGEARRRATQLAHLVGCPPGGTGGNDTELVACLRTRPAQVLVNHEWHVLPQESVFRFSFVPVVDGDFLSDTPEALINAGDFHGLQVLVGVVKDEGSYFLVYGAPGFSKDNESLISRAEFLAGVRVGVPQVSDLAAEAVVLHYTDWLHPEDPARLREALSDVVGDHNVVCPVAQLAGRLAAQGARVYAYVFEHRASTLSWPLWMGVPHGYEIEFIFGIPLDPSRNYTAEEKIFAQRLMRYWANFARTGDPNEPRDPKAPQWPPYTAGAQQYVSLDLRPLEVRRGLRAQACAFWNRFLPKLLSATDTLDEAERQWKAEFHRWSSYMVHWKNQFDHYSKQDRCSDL
Nature of the test: biochemical.
Turning to `CC1N=C(CCCCCCCCCCc2cc(O)ccc2OC2OC(CO)C(O)C(O)C2O)CC1O` (stereo not drawn) [compound 1, tiliine A], the IC50 (commonly the concentration that gives 50% inhibition) worked out at 231 µM.

`CC1NC(CCCCCCCCCc2cc(O)ccc2OC2OC(CO)C(O)C(O)C2O)CCC1O` (stereo not drawn) [compound 2, tiliamine A] gave an IC50 of 172 µM.

Take `CC(=O)OC1CCC(CCCCCCCCCc2cc(O)ccc2O[C@@H]2O[C@H](CO)[C@@H](O)[C@H](O)[C@H]2O)NC1C` (stereo partly drawn) [compound 3, acetyl-tiliamine A]: the IC50 is given as 50% inhibition level was not achieved.
